Laboratory results taken from patent US6486097B2, “Herbicidal fatty acid and maleic hydrazide salt compositions” (W. Neudorff GmbH KG, priority 2000, dated 2002).

What was measured:
dandelions [1] = assay: Field dandelion test with added alcohol and gum (Example 6); assay type: in vivo; conditions: 0.2 L/m^2, re-sprayed after 14 days, 10 days after second spray
Method: This test compared the herbicidal activity of NH4C9, NH4MH and (NH4C9+NH4MH) with added alcohol and gums on dandelion mortality. The gum Kelzan S (Merck & Co., Inc.) at 0.08% was used as a thickener.
This test also investigated the effect of adding NH4MH to emulsified C9 acid. The emulsified C9 acid solution was made by adding 3.5 g of C9 acid with 1.0 g of Tween 80 and 95.5 g water (no ammonium hydroxide was added). For the C9 acid+NH4MH solution, 13 g of water was replaced by 13 g of the 6.9% NH4MH stock solution.
Every solution was sprayed onto 16 field-grown, medium-sized dandelions. All of the dandelions had leaves longer than 10 cm. The dandelions were sprayed at a rate of 0.2 L/m^2. All plants were re-sprayed 14 days after the first spray. The number of dead plants was assessed 10 days after the second spray.

dandelions [2] = assay: Potted dandelion test of NH4C9 and NH4C11:1 with and without MH (Example 7); assay type: in vivo; conditions: for Number of Dead Plants of 15 Total: 0.5 L/m^2, sprayed twice 8 days apart, 8 days after second spray; for Contact herbicidal activity (in words): without NH4MH, treated plants were able to re-grow
Description: Five-month-old potted dandelions were sprayed with solutions of ammonium fatty acid soaps in combination with NH4MH. The solutions contained 3.9% ammonium fatty acid soaps and 1.15% NH4MH. The plants were sprayed at a rate of 0.5 L/m^2. The plants were sprayed twice, with 8 days between sprays. Final observations were taken 8 days after the second spray. Fifteen plants were used per treatment.

dandelions [3] = assay: Field dandelion test (Example 2); assay type: in vivo; conditions: 0.2 L/m^2, re-sprayed after 7 days, 38 days after first spray
Method: This test compared the herbicidal activity of NH4C9, NH4MH, and NH4C9+NH4MH on dandelion mortality. This test also investigated the effect of adding isopropyl alcohol (IPA) to NH4C9+NH4MH. Nine dandelions were grown in 0.5 m^2 areas of soil in the field. At the time of spraying the dandelions were very large, with leaves longer than 25 cm. Every treatment was sprayed onto 4 areas of soil. Every 0.5 m^2 plot received 100 ml of solution (0.2 L/m^2). All of the areas were re-sprayed 7 days after the first spray. The number of dead plants was assessed 38 days after the first spray.
Round Up (35.6% glyphosate N-(phosphonomethyl) glycine) produced by Monsanto, Killex (9.5% 2,4-D (2,4-dichlorophenoxy) acetic acid, Mecoprop (5% 2-(4-chloro-2-methylphenoxy)) propanoic acid and 0.9% Dicamba (3,6-dichloro-o-anisic acid) by Green Cross were diluted as per label instructions and included as standards.

dandelions [4] = assay: Dandelion test of NH4C9 with a range of NH4MH concentrations (Example 3); assay type: in vivo; conditions: sprayed to wetness, 36 days after spraying
Method: This test examined NH4C9 combined with a range of NH4MH concentrations. All of the NH4C9 treatments contained 3.9% NH4C9. All of the solutions were sprayed to wetness onto 10 dandelions. The number of dead plants was assessed 36 days after spraying.

dandelions [5] = assay: Greenhouse dandelion test with a gum (Example 4), mortality; assay type: in vivo; conditions: pH 7.38
Description: (§1) This test studied the effect of thickening NH4C9+NH4MH solutions on plant mortality. The solutions were thickened by adding 0.5 g of the xanthan gum Rhodopol 23 suspended in 3.0 g propylene glycol to 96.5 g solution. The pH values of the test solutions were adjusted to 7.38.

[6] = Viscosity of test solutions (Example 4); assay type: physicochemical; conditions: pH 7.38
Description: as §1

[7] = same number of moles of NH4MH and MH
Method: The compositions of the solutions are listed below. Note that slightly more NH4MH was added than MH acid, as NH4MH has a higher molecular weight. The same number of moles of NH4MH and MH were used.
Viscosity is measured in centipoise (milli pascal seconds). Water has a viscosity of 1.0.

dandelions [8] = assay: Greenhouse dandelion test of TopGun with and without MH (Example 5); assay type: in vivo; conditions: NH4MH 1.15%; sprayed to run-off; 15 days after spraying
Method: TopGun is a proprietary emulsified formulation containing 18% C9 (nonanoic) acid present as free acid. TopGun was diluted to 1.8% C9 acid. Each solution was sprayed to run-off onto ten 20 cm diameter dandelions grown in the greenhouse. The number of dead plants was assessed 15 days after spraying.

[9] = C9 acid 3.5% emulsified with Tween 80

## CCCCCCCCC(=O)O [C9 acid, Nonanoic acid]
Dandelions [1]; [9]
  Dead Plants (#/16): 3 #/16
  Dead Plants (%): 19%

## O=c1ccc(=O)[nH][nH]1 [MH, 1,2-dihydro-3,6-pyridazine-dione]
Dandelions [2]; MH only 1%
  Number of Dead Plants of 15 Total: 0

## CCCCCCCCC(=O)O.N [NH4C9, ammonium salt of nonanoic acid]
Dandelions [1]; NH4C9 3.9%
  Dead Plants (#/16): 2 #/16
  Dead Plants (%): 13%
Dandelions [3]; NH4C9 3.9%
  Dead Plants (#/36): 0 #/36
  Dead Plants (%): 0%
Dandelions [4]; NH4C9 3.9%
  Mortality (#/10 plants): 0 #/10 plants
Dandelions [5]; NH4C9 2.2%
  Mortality (#/10): 1 #/10
Dandelions [2]; NH4C9 3.9%
  Number of Dead Plants of 15 Total: 1
Dandelions [2]
  Contact herbicidal activity (in words): good contact herbicides
[6]; NH4C9 2.2%
  Viscosity (Cps): 1 Cps

## C=CCCCCCCCCC(=O)O.N [NH4C11:1]
Dandelions [2]; NH4C11:1 3.9%
  Number of Dead Plants of 15 Total: 2
Dandelions [2]
  Contact herbicidal activity (in words): good contact herbicides

## N.O=c1ccc(O)n[nH]1 [NH4MH, ammonium salt of maleic hydrazide]
Dandelions [1]; NH4MH 0.9% only
  Dead Plants (#/16): 0 #/16
  Dead Plants (%): 0%
[7]
  Solubility in NH4C9 concentrate compared with MH: superior solubility
Dandelions [8]
  Number of Dead Plants (#/10 Plants): 0 #/10 Plants
Dandelions [3]; NH4MH 1.15%
  Dead Plants (#/36): 1 #/36
  Dead Plants (%): 3%
Dandelions [4]; NH4MH 1.15%
  Mortality (#/10 plants): 0 #/10 plants
Dandelions [5]; NH4MH 1.15%
  Mortality (#/10): 0 #/10
[6]; NH4MH 1.15%
  Viscosity (Cps): 1 Cps
